Measurements as given in ChEMBL document CHEMBL1201862, “PubChem BioAssay data set” (2004).
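Briefly, cells in 96-well plates were exposed to five compound concentrations for 48 h, and endpoints were estimated by linear interpolation. GI50 = concentration required for 50% inhibition of growth.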 Calls of active or inactive are those of the source. Rule as the data show it: active = GI50 up to about 1.1 µM and inactive = higher.

How the values were obtained:
Test in all cases: inhibition of tumour cell growth, NCI panel, 48 h
MOLT-4 = test system: MOLT-4
Malme-3M = test system: Malme-3M
OVCAR-4 = test system: OVCAR-4
SNB-78 = test system: SNB-78
TK-10 = test system: TK-10
DLD-1 = test system: DLD-1
RPMI-8226 = test system: RPMI-8226
ACHN = test system: ACHN
COLO 205 = test system: COLO 205
SK-OV-3 = test system: SK-OV-3
HOP-62 = test system: HOP-62
SNB-75 = test system: SNB-75
OVCAR-5 = test system: OVCAR-5
SW-620 = test system: SW-620
A549 = test system: A549
K562 = test system: K562
HCT-15 = test system: HCT-15
SK-MEL-5 = test system: SK-MEL-5
CCRF-CEM = test system: CCRF-CEM
SF-268 = test system: SF-268
HT-29 = test system: HT-29
SK-MEL-28 = test system: SK-MEL-28
IGROV-1 = test system: IGROV-1
UACC-62 = test system: UACC-62
NCI-H226 = test system: NCI-H226
M19-MEL = test system: M19-MEL
A498 = test system: A498
CAKI-1 = test system: CAKI-1
SK-MEL-2 = test system: SK-MEL-2
LXFL 529 = test system: LXFL 529
NCI-H522 = test system: NCI-H522
786-0 = test system: 786-0
LOX IMVI = test system: LOX IMVI
SN12C = test system: SN12C
RXF 631 = test system: RXF 631
NCI-H23 = test system: NCI-H23
HOP-92 = test system: HOP-92
HOP-18 = test system: HOP-18
OVCAR-3 = test system: OVCAR-3
SF-295 = test system: SF-295
OVCAR-8 = test system: OVCAR-8
M14 = test system: M14
DMS-273 = test system: DMS-273
UACC-257 = test system: UACC-257
EKVX = test system: EKVX
HCT-116 = test system: HCT-116
HL-60 = test system: HL-60
SR = test system: SR
SF-539 = test system: SF-539
U-251 = test system: U-251
HCC 2998 = test system: HCC 2998
SNB-19 = test system: SNB-19
KM-20L2 = test system: KM-20L2
RXF 393 = test system: RXF 393
KM12 = test system: KM12
NCI-H460 = test system: NCI-H460
XF498 = test system: XF498
DMS-114 = test system: DMS-114
UO-31 = test system: UO-31

CC(=O)NC1C(OCc2ccccc2)OC(COC(=O)CCCCCNc2ccc([N+](=O)[O-])c3[nH]c4ccc(O)cc4c(=O)c23)C(O)C1OC(C)C(=O)N[C@@H](C)C(=O)N[C@H](CCC(=O)OCc1ccccc1)C(N)=O (stereo partly drawn)
GI50 (MOLT-4): 1.87 µM (inactive)
GI50 (Malme-3M): 1.32 µM (inactive)
GI50 (OVCAR-4): 3.34 µM (inactive)
GI50 (SNB-78): 3.16 µM (inactive)
GI50 (TK-10): 3.06 µM (inactive)
GI50 (DLD-1): 1.8 µM (inactive)
GI50 (RPMI-8226): 0.506 µM (active)
GI50 (ACHN): 17.3 µM (inactive)
GI50 (COLO 205): 1.55 µM (inactive)
GI50 (SK-OV-3): 2.99 µM (inactive)
GI50 (HOP-62): 5.9 µM (inactive)
GI50 (SNB-75): 4.13 µM (inactive)
GI50 (OVCAR-5): 1.06 µM (active)
GI50 (SW-620): 0.465 µM (active)
GI50 (A549): 1.26 µM (inactive)
GI50 (K562): 1.49 µM (inactive)
GI50 (HCT-15): 0.745 µM
GI50 (SK-MEL-5): 8.53 µM (inactive)
GI50 (CCRF-CEM): 3.06 µM (inactive)
GI50 (SF-268): 2.31 µM (inactive)
GI50 (HT-29): 0.401 µM (active)
GI50 (SK-MEL-28): 2.69 µM (inactive)
GI50 (IGROV-1): 7.24 µM (inactive)
GI50 (UACC-62): 1.77 µM (inactive)
GI50 (NCI-H226): 4.9 µM (inactive)
GI50 (M19-MEL): 5.68 µM (inactive)
GI50 (A498): 2.1 µM (inactive)
GI50 (CAKI-1): 1.56 µM (inactive)
GI50 (SK-MEL-2): 1.95 µM (inactive)
GI50 (LXFL 529): 1.5 µM (inactive)
GI50 (NCI-H522): 1.6 µM (inactive)
GI50 (786-0): 1.86 µM (inactive)
GI50 (LOX IMVI): 2.39 µM (inactive)
GI50 (SN12C): 6.59 µM (inactive)
GI50 (RXF 631): 0.759 µM (active)
GI50 (NCI-H23): 1.35 µM (inactive)
GI50 (HOP-92): 0.879 µM (active)
GI50 (HOP-18): 1.71 µM (inactive)
GI50 (OVCAR-3): 2.15 µM (inactive)
GI50 (SF-295): 3.08 µM (inactive)
GI50 (OVCAR-8): 1.64 µM (inactive)
GI50 (M14): 1.49 µM (inactive)
GI50 (DMS-273): 1.49 µM (inactive)
GI50 (UACC-257): 2.45 µM (inactive)
GI50 (EKVX): 3.94 µM (inactive)
GI50 (HCT-116): 0.321 µM (active)
GI50 (HL-60): 2.77 µM (inactive)
GI50 (SR): 0.522 µM (active)
GI50 (SF-539): 3.4 µM (inactive)
GI50 (U-251): 2.45 µM (inactive)
GI50 (HCC 2998): 3.25 µM (inactive)
GI50 (SNB-19): 3 µM (inactive)
GI50 (KM-20L2): 0.234 µM (active)
GI50 (RXF 393): 1.6 µM (inactive)
GI50 (KM12): 1.39 µM (inactive)
GI50 (NCI-H460): 0.261 µM (active)

CC1CN1c1c(C(=O)/C=C/c2ccc(F)cc2)c(-c2ccccc2)nn(C)c1=O (stereo not drawn)
GI50 (MOLT-4): 14.3 µM (inactive)
GI50 (Malme-3M): 16 µM (inactive)
GI50 (OVCAR-4): 16.5 µM (inactive)
GI50 (SNB-78): 23.4 µM (inactive)
GI50 (TK-10): 17.2 µM (inactive)
GI50 (DLD-1): 12.8 µM (inactive)
GI50 (RPMI-8226): 9.46 µM (inactive)
GI50 (ACHN): 16.3 µM (inactive)
GI50 (COLO 205): 18.5 µM (inactive)
GI50 (SK-OV-3): > 10 µM (inactive)
GI50 (HOP-62): 23.8 µM (inactive)
GI50 (SNB-75): 14.3 µM (inactive)
GI50 (OVCAR-5): 12.3 µM (inactive)
GI50 (SW-620): 17.9 µM (inactive)
GI50 (XF498): 15.3 µM (inactive)
GI50 (A549): 18.3 µM (inactive)
GI50 (K562): > 10 µM (inactive)
GI50 (HCT-15): > 10 µM
GI50 (SK-MEL-5): 16 µM (inactive)
GI50 (CCRF-CEM): 13.8 µM (inactive)
GI50 (SF-268): 16.3 µM (inactive)
GI50 (HT-29): 16.9 µM (inactive)
GI50 (SK-MEL-28): 17.5 µM (inactive)
GI50 (IGROV-1): 19.8 µM (inactive)
GI50 (UACC-62): 13.6 µM (inactive)
GI50 (NCI-H226): 11.9 µM (inactive)
GI50 (M19-MEL): 14.6 µM (inactive)
GI50 (A498): > 10 µM (inactive)
GI50 (CAKI-1): > 10 µM (inactive)
GI50 (SK-MEL-2): 18.2 µM (inactive)
GI50 (LXFL 529): 16.7 µM (inactive)
GI50 (NCI-H522): > 10 µM (inactive)
GI50 (786-0): 15.4 µM (inactive)
GI50 (LOX IMVI): 13.7 µM (inactive)
GI50 (SN12C): 15.4 µM (inactive)
GI50 (NCI-H23): 14 µM (inactive)
GI50 (HOP-92): 6.58 µM (inactive)
GI50 (HOP-18): 15.2 µM (inactive)
GI50 (OVCAR-3): 15.4 µM (inactive)
GI50 (SF-295): 16.2 µM (inactive)
GI50 (OVCAR-8): 14.2 µM (inactive)
GI50 (DMS-114): 15.7 µM (inactive)
GI50 (UO-31): 12.9 µM (inactive)
GI50 (M14): 16.9 µM (inactive)
GI50 (DMS-273): > 10 µM (inactive)
GI50 (UACC-257): 14.2 µM (inactive)
GI50 (EKVX): 19 µM (inactive)
GI50 (HCT-116): 13.5 µM (inactive)
GI50 (HL-60): 13.4 µM (inactive)
GI50 (SF-539): > 10 µM (inactive)
GI50 (U-251): 15.5 µM (inactive)
GI50 (HCC 2998): 15.2 µM (inactive)
GI50 (SNB-19): 16 µM (inactive)
GI50 (KM-20L2): 17.7 µM (inactive)
GI50 (RXF 393): 10.3 µM (inactive)
GI50 (KM12): 15.7 µM (inactive)
GI50 (NCI-H460): 17.1 µM (inactive)
